Results taken from ChEMBL document CHEMBL1201862, “PubChem BioAssay data set” (2004).
The source made the active and inactive calls.

Columns and labels:
Coagulation factor XII [1] = target: T1, Coagulation factor XII (Homo sapiens, UniProt P00748); test: activated coagulation factor XII inhibitor potency, concentration-effect curve, cell-free (AID 716); type: functional
T1 sequence (P00748 whole entry): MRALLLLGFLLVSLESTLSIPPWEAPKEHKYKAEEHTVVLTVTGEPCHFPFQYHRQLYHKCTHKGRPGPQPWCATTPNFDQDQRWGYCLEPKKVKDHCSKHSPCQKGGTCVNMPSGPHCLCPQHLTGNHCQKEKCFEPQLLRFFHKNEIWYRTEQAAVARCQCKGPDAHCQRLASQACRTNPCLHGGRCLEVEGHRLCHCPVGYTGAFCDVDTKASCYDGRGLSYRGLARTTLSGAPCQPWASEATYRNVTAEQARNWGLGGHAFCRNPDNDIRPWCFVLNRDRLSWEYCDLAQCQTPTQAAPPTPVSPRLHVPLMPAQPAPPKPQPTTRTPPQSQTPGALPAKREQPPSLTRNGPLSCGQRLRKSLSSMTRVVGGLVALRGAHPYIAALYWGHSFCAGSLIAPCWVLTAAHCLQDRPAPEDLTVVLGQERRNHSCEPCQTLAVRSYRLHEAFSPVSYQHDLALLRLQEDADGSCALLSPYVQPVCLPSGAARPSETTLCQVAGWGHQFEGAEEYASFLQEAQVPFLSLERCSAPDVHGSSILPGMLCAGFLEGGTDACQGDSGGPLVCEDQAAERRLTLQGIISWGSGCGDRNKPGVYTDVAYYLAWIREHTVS

[2] = target: T2, Voltage-dependent T-type calcium channel subunit alpha-1H (Homo sapiens, UniProt O95180); test: human CACNA1H calcium influx blockade – cell-based, synthetic library set 2, HEK293 HH8, Fluo-4, SAR follow-up (AID 493023); type: functional
T2 sequence (O95180 whole entry): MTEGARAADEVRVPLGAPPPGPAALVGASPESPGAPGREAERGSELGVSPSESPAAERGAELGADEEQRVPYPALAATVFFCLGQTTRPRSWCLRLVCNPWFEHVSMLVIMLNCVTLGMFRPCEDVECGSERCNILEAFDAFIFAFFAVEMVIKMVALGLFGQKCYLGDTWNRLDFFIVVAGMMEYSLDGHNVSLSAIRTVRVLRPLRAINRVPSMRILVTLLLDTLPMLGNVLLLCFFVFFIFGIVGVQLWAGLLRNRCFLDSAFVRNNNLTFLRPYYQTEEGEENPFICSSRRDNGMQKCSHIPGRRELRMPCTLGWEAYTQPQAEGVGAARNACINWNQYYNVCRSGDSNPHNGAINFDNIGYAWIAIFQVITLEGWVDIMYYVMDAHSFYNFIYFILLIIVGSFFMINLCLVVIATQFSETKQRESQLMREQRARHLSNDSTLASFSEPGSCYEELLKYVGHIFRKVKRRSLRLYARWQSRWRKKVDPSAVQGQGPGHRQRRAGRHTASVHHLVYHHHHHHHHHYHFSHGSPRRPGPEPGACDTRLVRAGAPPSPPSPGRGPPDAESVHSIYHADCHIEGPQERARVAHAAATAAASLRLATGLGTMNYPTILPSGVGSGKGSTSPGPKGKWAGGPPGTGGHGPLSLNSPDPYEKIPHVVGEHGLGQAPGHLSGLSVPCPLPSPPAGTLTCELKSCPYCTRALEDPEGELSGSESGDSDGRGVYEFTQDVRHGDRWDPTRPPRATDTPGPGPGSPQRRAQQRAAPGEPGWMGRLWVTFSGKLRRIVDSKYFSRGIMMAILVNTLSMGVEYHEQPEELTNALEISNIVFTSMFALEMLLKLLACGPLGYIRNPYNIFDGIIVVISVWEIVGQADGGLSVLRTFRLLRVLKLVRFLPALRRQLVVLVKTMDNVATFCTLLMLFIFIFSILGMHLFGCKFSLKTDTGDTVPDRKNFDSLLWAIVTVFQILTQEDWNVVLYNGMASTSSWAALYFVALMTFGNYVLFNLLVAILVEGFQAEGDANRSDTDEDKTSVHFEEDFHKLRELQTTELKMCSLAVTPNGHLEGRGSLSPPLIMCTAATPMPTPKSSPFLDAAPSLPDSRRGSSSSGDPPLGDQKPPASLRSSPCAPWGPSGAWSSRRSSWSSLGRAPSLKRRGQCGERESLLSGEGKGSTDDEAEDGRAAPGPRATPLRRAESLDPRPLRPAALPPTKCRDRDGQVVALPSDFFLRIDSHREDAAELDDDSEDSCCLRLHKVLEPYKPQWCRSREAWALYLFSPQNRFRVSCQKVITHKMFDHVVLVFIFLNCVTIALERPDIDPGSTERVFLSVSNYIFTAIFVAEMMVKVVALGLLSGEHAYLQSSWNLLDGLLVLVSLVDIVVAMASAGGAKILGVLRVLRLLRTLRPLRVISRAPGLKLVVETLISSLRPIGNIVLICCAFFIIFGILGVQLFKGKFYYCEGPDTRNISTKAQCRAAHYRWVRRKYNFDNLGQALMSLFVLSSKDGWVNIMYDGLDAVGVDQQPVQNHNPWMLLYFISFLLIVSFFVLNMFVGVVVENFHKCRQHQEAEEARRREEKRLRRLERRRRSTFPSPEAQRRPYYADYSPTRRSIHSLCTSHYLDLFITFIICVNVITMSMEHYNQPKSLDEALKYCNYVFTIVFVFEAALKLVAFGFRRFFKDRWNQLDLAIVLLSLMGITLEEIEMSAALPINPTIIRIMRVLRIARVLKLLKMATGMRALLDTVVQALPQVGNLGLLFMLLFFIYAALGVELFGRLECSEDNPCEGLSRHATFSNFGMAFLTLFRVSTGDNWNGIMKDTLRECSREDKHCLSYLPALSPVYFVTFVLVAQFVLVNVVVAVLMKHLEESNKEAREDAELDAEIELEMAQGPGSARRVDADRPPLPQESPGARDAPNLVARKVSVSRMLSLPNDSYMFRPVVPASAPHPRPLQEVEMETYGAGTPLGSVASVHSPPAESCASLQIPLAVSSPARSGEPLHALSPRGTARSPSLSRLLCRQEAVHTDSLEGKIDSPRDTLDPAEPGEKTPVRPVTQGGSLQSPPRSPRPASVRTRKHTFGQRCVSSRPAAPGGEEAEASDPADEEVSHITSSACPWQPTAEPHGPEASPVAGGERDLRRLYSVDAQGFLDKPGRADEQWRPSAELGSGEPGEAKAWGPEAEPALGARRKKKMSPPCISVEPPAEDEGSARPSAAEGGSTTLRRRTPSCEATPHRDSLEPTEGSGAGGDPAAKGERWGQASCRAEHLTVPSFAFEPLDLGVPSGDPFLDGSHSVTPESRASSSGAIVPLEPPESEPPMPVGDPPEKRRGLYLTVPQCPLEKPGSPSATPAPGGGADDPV

[3] = target: T2, Voltage-dependent T-type calcium channel subunit alpha-1H; test: Inhibitors of T-Type Calcium Channels (Cav3.2 HEK whole cell CRC). [Related pubchem assays (depositor defined):AID449739, AID463087, AID489005, AID493021, AID493022, AID493023, AID493041, AID504579, AID504584]; type: functional, cell-based, HEK293
[4] = target: T3, Runt-related transcription factor 1/Core-binding factor subunit beta (Homo sapiens, UniProt Q01196+Q13951); test: disruptors of Runt domain/CBFb-SMMHC interaction – biochemical, FRET, Cerulean-Runt, Venus-CBFb-SMMHC, uHTS, […] (AID 1434); type: protein assay
T3 sequence (Q01196 whole entry, the tested form may be a part): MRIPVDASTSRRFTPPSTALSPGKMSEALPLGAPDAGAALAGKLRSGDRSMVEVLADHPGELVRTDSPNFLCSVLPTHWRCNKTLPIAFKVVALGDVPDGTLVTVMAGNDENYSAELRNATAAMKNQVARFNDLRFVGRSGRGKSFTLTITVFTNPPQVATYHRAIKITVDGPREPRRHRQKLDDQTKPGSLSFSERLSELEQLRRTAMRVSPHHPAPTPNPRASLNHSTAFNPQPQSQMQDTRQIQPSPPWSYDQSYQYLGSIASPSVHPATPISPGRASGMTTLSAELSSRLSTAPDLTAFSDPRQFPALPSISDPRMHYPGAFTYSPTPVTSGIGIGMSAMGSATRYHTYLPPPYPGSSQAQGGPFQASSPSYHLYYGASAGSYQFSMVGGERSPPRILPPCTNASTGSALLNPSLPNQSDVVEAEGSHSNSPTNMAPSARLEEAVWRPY
T3 sequence (Q13951 whole entry, the tested form may be a part): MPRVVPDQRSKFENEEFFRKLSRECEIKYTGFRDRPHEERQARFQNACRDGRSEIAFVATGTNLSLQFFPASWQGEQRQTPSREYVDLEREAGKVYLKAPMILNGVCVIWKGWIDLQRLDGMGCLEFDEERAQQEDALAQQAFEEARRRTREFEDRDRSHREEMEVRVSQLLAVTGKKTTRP

[5] = target: T3, Runt-related transcription factor 1/Core-binding factor subunit beta; test: Runt domain/CBFb-SMMHC interaction disruptors – biochemical, TR-FRET (AID 1438); type: protein assay
BJ [6] = test: growth inhibition of engineered Ras-driven BJ cells – cell-based, alamar blue fluorescence, cherrypicked samples, dose response (AID 2631); type: functional; details: Homo sapiens;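 note: confirmatory dose-response assay in RAS-dependent BJ fibroblasts engineered with TERT, LT and ST, with cytotoxicity read by fluorescence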
[7] = alpha-synuclein stem-loop luciferase translation blockers – H4 neuroglioma cells, luminescence, confirmation (AID 1988); type: functional, cell-based
BJ [8] = test: BJ-TERT-LT-ST fibroblast viability loss – cell-based, RAS-independent, luminescence, dose response (AID 1935); type: functional; details: Homo sapiens;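 note: BJ fibroblasts immortalized with TERT plus LT and ST oncogenes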
X-box-binding protein 1 = X-box-binding protein 1 (Homo sapiens, UniProt P17861); type: functional, Cricetulus griseus;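 note: confirmatory dose-response counter-screen serving a CHOP assay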
BJ [9] = test: cells; type: functional, cell-based; details: Homo sapiens
BJ [10] = test: BJ-TERT fibroblast viability loss – cell-based, RAS-independent, luminescence, dose response (AID 1933); type: functional; details: Homo sapiens
[11] = MIN6 cell viability loss – mouse insulinoma, cytotoxicity control, dose response (AID 2122); type: functional;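 note: confirmatory high-throughput counterscreen run to flag cytotoxic compounds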
[12] = DRD fibroblast viability loss – cell-based, non-viral oncogenic, luminescence, dose response (AID 1934); type: functional; details: Homo sapiens
[13] = decrease of insulin promoter-GFP reporter – imaging, high-content screening, mouse beta cells (AID 1628); type: functional; details: MIN6
[14] = luciferase reporter signal suppression in cells – H4 neuroglioma cells, luminescence, dose response (AID 1990); type: functional, cell-based
INS1 = test: INS-1E survival protection against cytokine death – cell-based, luminescence, retest, dose response (AID 449756); type: functional; details: Rattus norvegicus;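 note: cell death triggered by IL-1 beta plus TNF-alpha plus IFN-gamma mixture; protective hits raise ATP signal compared with cytokine alone wells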
[15] = Luminescence Cell-Based Dose Response HTS to Identify Inhibitors of 5'UTR Stem-Loop Driven Prion Protein mRNA Translation in H4 Neuroglioblastoma Cells. [Related pubchem assays: 1827 (Project Summary), 1813 (Primary HTS)]; type: functional
[16] = target: T4, Type-1 angiotensin II receptor (Homo sapiens, UniProt P30556); test: agonist activity at AGTR1 – cell-based, uHTS hits, selectivity assay for APJ receptor agonist project, dose response (AID 488865); type: functional;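 note: beta-arrestin recruitment to AT1 measured by enzyme fragment complementation luminescence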
T4 sequence (P30556 whole entry): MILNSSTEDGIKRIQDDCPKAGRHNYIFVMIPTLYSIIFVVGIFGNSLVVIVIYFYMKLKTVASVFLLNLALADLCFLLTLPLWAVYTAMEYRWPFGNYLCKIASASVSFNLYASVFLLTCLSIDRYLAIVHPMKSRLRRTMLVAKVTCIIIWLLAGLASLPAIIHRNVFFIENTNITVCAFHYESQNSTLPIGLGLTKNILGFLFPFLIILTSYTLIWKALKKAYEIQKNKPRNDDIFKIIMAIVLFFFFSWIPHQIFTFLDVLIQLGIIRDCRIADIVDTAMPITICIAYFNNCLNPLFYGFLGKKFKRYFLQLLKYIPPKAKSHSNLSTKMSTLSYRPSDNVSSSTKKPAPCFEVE

[17] = target: T5, Heat shock factor protein 1 (Mus musculus, UniProt P38532); test: decrease of HSF1-responsive luciferase luminescence – cell-based, NIH3T3, dose retest, confirmation (AID 2382); type: functional;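 note: NIH3T3 fibroblasts with HSF1-driven luciferase reporter stressed by proteasome inhibitor MG132; luminescence from HSF1-driven luciferase expression after 8 hours of MG132 stress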
T5 sequence (P38532 whole entry): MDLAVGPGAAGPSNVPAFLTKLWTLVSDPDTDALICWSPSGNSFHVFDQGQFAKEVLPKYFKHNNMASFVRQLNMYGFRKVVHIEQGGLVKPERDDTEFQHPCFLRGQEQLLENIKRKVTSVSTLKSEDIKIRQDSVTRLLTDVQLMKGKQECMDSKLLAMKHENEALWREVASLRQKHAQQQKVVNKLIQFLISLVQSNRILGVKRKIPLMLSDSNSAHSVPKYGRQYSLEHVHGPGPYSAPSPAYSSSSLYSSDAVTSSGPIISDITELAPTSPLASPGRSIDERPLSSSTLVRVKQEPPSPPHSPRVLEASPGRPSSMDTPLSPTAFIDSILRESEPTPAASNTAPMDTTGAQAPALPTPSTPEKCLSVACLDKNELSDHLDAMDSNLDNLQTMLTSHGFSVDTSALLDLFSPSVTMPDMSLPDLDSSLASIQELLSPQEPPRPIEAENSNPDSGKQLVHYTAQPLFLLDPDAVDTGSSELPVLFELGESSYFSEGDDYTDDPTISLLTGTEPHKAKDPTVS

T-cell = test: loss of vesicle association with mouse CD8+ T cells – mouse 2C CD8+ T cells, flow cytometry, dose response (AID 485284); type: functional
Coagulation factor XII [18] = target: T1, Coagulation factor XII; test: Factor XIIa Dose Response Confirmation from Single Well HTS. [Related pubchem assays (depositor defined):AID701]; type: functional
[19] = fluconazole-exposed Candida albicans growth modulators – fluorescence, retest, confirmation (AID 2467); type: functional, cell-based
[20] = NIH-3T3 fibroblast cytotoxicity, dose response, cytotoxicity control, cell-based, fluorescence, Alamar Blue, secondary assay (AID 2327); type: functional;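 note: NIH-3T3 mouse fibroblasts cultured with fluconazole at 8 µg/mL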
[21] = target: E3 ubiquitin-protein ligase Mdm2/Protein Mdm4 (Homo sapiens, UniProt O15151+Q00987); test: disruption of Mdm2/MdmX protein binding – luminescence detection, dose response (AID 504593); type: functional
cells [22] = type: functional, cell-based
[23] = Luminescence Cell-Based Dose Retest to Confirm Inhibitors of Cancer Stem Cells. [Related pubchem assays (depositor defined):AID2717, AID2721]; type: functional; details: Homo sapiens
cells [24] = type: functional, cell-based; remark: listed apart in the source
[25] = target: T6, G-protein coupled receptor 35 (Homo sapiens, UniProt Q9HC97); test: SAR analysis of Agonists of the GPR35 Receptor using an Image-Based Assay - Set 3. [Related pubchem assays (depositor defined):AID1961, AID1965]; type: functional
T6 sequence (Q9HC97 whole entry): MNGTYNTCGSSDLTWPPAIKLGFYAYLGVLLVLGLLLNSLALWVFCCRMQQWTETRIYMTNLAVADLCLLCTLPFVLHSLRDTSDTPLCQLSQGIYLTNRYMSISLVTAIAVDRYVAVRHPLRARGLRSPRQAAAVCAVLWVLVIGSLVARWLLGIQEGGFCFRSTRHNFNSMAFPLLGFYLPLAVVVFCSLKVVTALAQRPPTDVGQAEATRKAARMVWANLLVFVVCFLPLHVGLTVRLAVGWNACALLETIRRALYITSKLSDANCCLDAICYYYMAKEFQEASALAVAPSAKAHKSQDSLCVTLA

Cannabinoid receptor 2 [26] = target: T7, Cannabinoid receptor 2 (Homo sapiens, UniProt P34972); test: SAR analysis of antagonists of the Cannabinoid Receptor 2 using an Image-Based Assay - Set 2. [Related pubchem assays (depositor defined):AID1961, AID1965]; type: functional
T7 sequence (P34972 whole entry): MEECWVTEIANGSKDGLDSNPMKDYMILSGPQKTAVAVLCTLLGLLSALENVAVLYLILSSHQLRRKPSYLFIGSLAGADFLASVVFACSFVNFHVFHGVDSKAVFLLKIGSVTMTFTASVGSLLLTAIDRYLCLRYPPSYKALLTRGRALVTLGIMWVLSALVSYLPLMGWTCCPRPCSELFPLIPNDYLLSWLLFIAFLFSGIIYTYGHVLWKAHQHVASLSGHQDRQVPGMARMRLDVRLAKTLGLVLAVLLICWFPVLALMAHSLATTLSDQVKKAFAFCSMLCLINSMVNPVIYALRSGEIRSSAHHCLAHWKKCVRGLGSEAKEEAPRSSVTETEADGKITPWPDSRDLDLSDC

Cannabinoid receptor 1 [27] = target: T8, Cannabinoid receptor 1 (Homo sapiens, UniProt P21554); test: SAR analysis of agonists of the Cannabinoid Receptor 1 using an Image-Based Assay - Set 3. [Related pubchem assays (depositor defined):AID1961, AID1965]; type: functional
T8 sequence (P21554 whole entry): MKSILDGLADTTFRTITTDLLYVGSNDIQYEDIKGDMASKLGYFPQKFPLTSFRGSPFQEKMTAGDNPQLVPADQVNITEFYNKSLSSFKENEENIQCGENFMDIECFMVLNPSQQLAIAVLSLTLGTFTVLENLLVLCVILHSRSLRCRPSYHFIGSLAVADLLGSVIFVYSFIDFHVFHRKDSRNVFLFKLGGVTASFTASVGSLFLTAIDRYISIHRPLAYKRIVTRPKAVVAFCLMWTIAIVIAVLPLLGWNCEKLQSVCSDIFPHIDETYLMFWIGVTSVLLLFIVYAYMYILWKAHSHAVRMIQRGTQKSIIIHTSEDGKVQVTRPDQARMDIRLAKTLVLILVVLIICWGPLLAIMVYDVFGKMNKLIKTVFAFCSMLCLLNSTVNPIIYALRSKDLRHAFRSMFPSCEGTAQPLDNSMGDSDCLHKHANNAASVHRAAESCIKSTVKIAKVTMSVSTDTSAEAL

[28] = target: G-protein coupled receptor 55 (Homo sapiens, UniProt Q9Y2T6); test: SAR analysis of selective Agonists of GPR55 using an Image-Based Assay - Set 2. [Related pubchem assays (depositor defined):AID1961, AID1965]; type: functional
Cannabinoid receptor 2 [29] = target: T7, Cannabinoid receptor 2; test: SAR analysis of agonists of the Cannabinoid Receptor 2 using an Image-Based Assay - Set 2. [Related pubchem assays (depositor defined):AID1961, AID1965]; type: functional
[30] = target: T6, G-protein coupled receptor 35; test: SAR analysis of Antagonists of the GPR35 Receptor using an Image-Based Assay - Set 4. [Related pubchem assays (depositor defined):[…]]; type: functional
Cannabinoid receptor 1 [31] = target: T8, Cannabinoid receptor 1; test: SAR analysis of antagonists of the Cannabinoid Receptor 1 using an Image-Based Assay - Set 3. [Related pubchem assays (depositor defined):AID1961, AID1965]; type: functional
[32] = target: Induced myeloid leukemia cell differentiation protein Mcl-1 (Homo sapiens, UniProt Q07820); test: blockers of MCL1 binding to BIM peptide – biochemical, fluorescence polarization, BIM-BH3 peptide, 1536-well, dose response (AID 2217)
[33] = target: DNA dC->dU-editing enzyme APOBEC-3A (Homo sapiens, UniProt P31941); test: Dose Response confirmation of small molecule APOBEC3A DNA Deaminase Inhibitors via a fluorescence-based single-stranded DNA deaminase assay. [Related pubchem assays (depositor defined):AID493011, AID493024]; type: functional
DNA dC->dU-editing enzyme APOBEC-3A, sequence (P31941 whole entry): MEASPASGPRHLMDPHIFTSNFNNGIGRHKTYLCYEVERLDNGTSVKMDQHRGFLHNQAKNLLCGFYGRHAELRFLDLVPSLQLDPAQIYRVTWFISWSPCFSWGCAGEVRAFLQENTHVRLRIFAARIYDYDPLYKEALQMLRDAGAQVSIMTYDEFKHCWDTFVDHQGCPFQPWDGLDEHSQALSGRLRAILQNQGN

Caspase-6 = Caspase-6 (Homo sapiens, UniProt P55212); test: inhibition of CASP6 peptide cleavage – biochemical, VEID-R110 fluorescence, cherry-pick, dose response (AID 720632)
[34] = target: DNA dC->dU-editing enzyme APOBEC-3G (Homo sapiens, UniProt Q9HC16); type: functional;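 note: Dose-response counterscreen measuring inhibition of APOBEC3G DNA deaminase activity, run while confirming APOBEC3A inhibitors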
DNA dC->dU-editing enzyme APOBEC-3G, sequence (Q9HC16 whole entry): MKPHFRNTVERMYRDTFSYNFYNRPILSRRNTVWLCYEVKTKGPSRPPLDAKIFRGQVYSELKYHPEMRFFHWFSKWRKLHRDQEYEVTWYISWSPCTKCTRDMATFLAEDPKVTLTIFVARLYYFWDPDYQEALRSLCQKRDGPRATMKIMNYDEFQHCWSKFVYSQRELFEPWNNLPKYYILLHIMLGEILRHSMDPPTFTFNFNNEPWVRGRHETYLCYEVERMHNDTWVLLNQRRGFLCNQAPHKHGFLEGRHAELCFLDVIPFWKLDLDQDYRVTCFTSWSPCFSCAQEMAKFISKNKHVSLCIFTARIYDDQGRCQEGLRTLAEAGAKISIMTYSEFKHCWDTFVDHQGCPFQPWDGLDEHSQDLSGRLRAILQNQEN

Caspase-7 = Caspase-7 (Homo sapiens, UniProt P55210); test: caspase-7 enzyme inhibition, selectivity check – biochemical, DEVD-R110 fluorescence, cherry-pick, selectivity assay for caspase-6 inhibitor project, dose response (AID 743295); type: functional
Caspase-7, sequence (P55210 24-198 limits assumed): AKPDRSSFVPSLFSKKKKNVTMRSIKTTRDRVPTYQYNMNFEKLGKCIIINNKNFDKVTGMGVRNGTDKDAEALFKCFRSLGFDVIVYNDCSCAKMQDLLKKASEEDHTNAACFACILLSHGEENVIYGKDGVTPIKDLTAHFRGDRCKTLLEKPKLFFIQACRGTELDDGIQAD
Caspase-7, sequence (P55210 207-303 limits assumed): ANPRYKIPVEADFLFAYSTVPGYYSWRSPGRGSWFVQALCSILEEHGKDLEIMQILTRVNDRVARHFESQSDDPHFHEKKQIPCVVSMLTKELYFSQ

Bcl-2-like protein 1 = Bcl-2-like protein 1 (Homo sapiens, UniProt Q07817); test: blockers of BCLXL peptide binding – biochemical, fluorescence polarization, 1536-well, selectivity assay for MCL1 inhibitor project, dose response (AID 2218)

O=C(Cc1ccc(-n2cccc2)cc1)N1CCc2ccccc21
IC50 (Coagulation factor XII [1]): > 50 µM (inactive)

CC(C)(C)CCN1C[C@@H]2[C@@H](CNC(=O)c3cc(Cl)cc(Cl)c3)[C@@H]2C1
EC50 [2]: 0.15 µM (active)
IC50 [3]: 0.036 µM (active)

Cc1ccc(CNC(=O)NCc2ccccc2)cc1
IC50 [4]: > 100 µM (inactive)
IC50 [5]: > 100 µM (inactive)

Cn1ncc2c(ON=C(N)c3ccc(C(C)(C)C)cc3)ncnc21
EC50 (BJ [6]): 2.92 µM (active)
EC50 [7]: 7.91 µM (active)
EC50 (BJ [8]): 4.91 µM (inconclusive)
Absolute IC50 (XBP1) (X-box-binding protein 1): < 10 µM
EC50 (BJ [9]): 5.24 µM (inconclusive)
EC50 (BJ [10]): 1.32 µM (active)
IC50 [11]: 1.22 µM (active)
EC50 [12]: 2.83 µM (active)
IC50 [13]: 2.12 µM (active)
EC50 [14]: > 120 µM (not active)
AC50 (INS1): 5.03 µM (active)
EC50 [15]: 10.1 µM (active)
EC50 [16]: > 100 µM (inactive)
EC50 [17]: 7.4 µM (active)

COc1ccc(/C=C2\SC(=S)N(CCC(=O)N3CCOCC3)C2=O)cc1
EC50 (T-cell): 16.2 µM (active)

CC(C)NC(=O)c1ccccc1-c1ccccc1
IC50 (Coagulation factor XII [18]): > 50 µM (inactive)

O=C(CN1CCCc2ccccc21)N/N=C/c1c(O)ccc2ccccc12
EC50 [19]: 1.91 µM (active)
EC50 [20]: > 160 µM (inconclusive)
IC50 [21]: 2.68 µM (active)
EC50 (cells [22]): 60.1 µM (active)
AC50 [23]: 1.83 µM (active)
EC50 (cells [24]): > 350 µM (not active)

Cc1cccc(N2CCN(C(=O)c3cccc(S(=O)(=O)N(C)C)c3)CC2)c1C
EC50 [25]: > 32 µM (inactive)
IC50 (Cannabinoid receptor 2 [26]): > 32 µM (inactive)
EC50 (Cannabinoid receptor 1 [27]): > 32 µM (inactive)
EC50 [28]: 3.12 µM (active)
EC50 (Cannabinoid receptor 2 [29]): > 32 µM (inactive)
IC50 [30]: > 32 µM (inactive)
IC50 (Cannabinoid receptor 1 [31]): > 32 µM (inactive)

O=C(O)/C(=C\c1ccc(Cl)c([N+](=O)[O-])c1)c1ccc(S(=O)(=O)N2CCCC2)s1
IC50 [32]: 15 µM (not active)
IC50 [33]: 19.4 µM (active)
AC50 (Caspase-6): 3.82 µM (active)
IC50 [34]: 47.8 µM (active)
AC50 (Caspase-7): > 70 µM (inactive)
IC50 (Bcl-2-like protein 1): > 109 µM (not active)
